Here are results for 4 molecules from EP0514216A1, “Antihypotensive benzofuran derivatives with N-linked 1H-imidazolyl-methyl-5-carboxamide substituents” (GLAXO GROUP LIMITED, priority 1991, dated 1992).

This assay concerns renal-ligated hypertensive rats. The experiment in a line: anti-hypertensive activity in vivo using renal-ligated hypertensive rats. Set-up: unit not given here. The conditions noted are these: for Reduction in diastolic blood pressure after 7h. i.a.: 0.5mg/kg intra-arterially (i.a.); for Reduction in diastolic blood pressure after 7h. p.o.: 0.5mg/kg orally (p.o.). On the procedure: Compounds of the present invention are also analysed for their anti-hypertensive activity in vivo using renal-ligated hypertensive rats.

In the case of `CCCc1nc(Cl)c(C(=O)NC)n1Cc1ccc2oc(-c3ccccc3NS(=O)(=O)C(F)(F)F)c(Br)c2c1` [Example 2, 1-[[3-Bromo-2-[2-[[(trifluoromethyl)sulphonyl]amino]phenyl]-5-benzofuranyl]methyl]-4-chloro-N-methyl-2-propyl-1H-imidazole-5-carboxamide], the “Reduction in diastolic blood pressure after 7h. i.a.” value is -43 and the “Reduction in diastolic blood pressure after 7h. p.o.” value is -60.
For the molecule `CCc1nc(Cl)c(C(=O)NC)n1Cc1ccc2oc(-c3ccccc3NS(=O)(=O)C(F)(F)F)c(Br)c2c1` [Example 12, 1-[[3-Bromo-2-[2-[[(trifluoromethyl)sulphonyl]amino]phenyl]-5-benzofuranyl]methyl]-4-chloro-2-ethyl-N-methyl-1H-imidazole-5-carboxamide], the “Reduction in diastolic blood pressure after 7h. i.a.” value is on record as -42 and the “Reduction in diastolic blood pressure after 7h. p.o.” value is listed as -31.
On the same counts, the results for `CCc1nc(Cl)c(C(N)=O)n1Cc1ccc2oc(-c3ccccc3NS(=O)(=O)C(F)(F)F)c(Br)c2c1` [Example 1, 1-[[3-Bromo-2-[2-[[(trifluoromethyl)sulphonyl]amino]phenyl]-5-benzofuranyl]methyl]-4-chloro-2-ethyl-1H-imidazole-5-carboxamide] are -49 and -55.
On the same counts, the results for `CCc1nc(C)c(C(=O)NC)n1Cc1ccc2oc(-c3ccccc3NS(=O)(=O)C(F)(F)F)c(Br)c2c1` [Example 13, 1-[[3-Bromo-2-[2-[[(trifluoromethyl)sulphonyl]amino]phenyl]-5-benzofuranyl]methyl]-2-ethyl-4-methyl-N-methyl-1H-imidazole-5-carboxamide] are -39 and -54.
